Legend:
C8-D1A = test: Cumulative population doubling (CPD), C8-D1A; type: cell-based, murine
Protocol: Cumulative population doubling (CPD) was assessed as previously described. Briefly, depending on the cell line, a variable number of cells corresponding to about 30% confluency were seeded in triplicate in 60 mm diameter Petri dishes. […] The cells were harvested when the confluency reached about 90%, counted and plated again at a dilution of 1/20. CPD was calculated as previously described.

[1] = system: barrier formed by BEC (hCMEC/D3); test: In vitro BBB permeability assay (FITC-Dextran), BEC; type: cell-based, human; conditions: 3-day treatment, nontoxic doses
Protocol: This assay was conducted as previously described. […] Permeability was measured by the passage of 40 kDa FITC-Dextran through the inserts. Fluorescence intensity measures were normalized to the DMSO control.

DAOY = test: MTT assay, 48 h exposure, DAOY MB cells; type: cell-based, human; conditions: Homo sapiens, Daoy; Table 1; MTT, 48 h exposure; mean ± SEM
Protocol: HDF (3000 cells), C8-D1A (5000 cells), D458 (5000 cells), DAOY (2000 cells), HD-MB03 (10,000 cells) and CHLA-01-Med (10,000 cells) were seeded at an approximate confluency of 50% in 96-well plates (Corning Inc., Corning, NY, USA) in 100 µL medium per well. A range from 50 nM to 150 µM of every drug was tested. The effects of the antiangiogenic compounds were measured using a 3-[4,5-dimethylthiazol-2yl]-diphenyltetrazolium bromide (MTT) colorimetric assay (Sigma, Lyon, France) according to the manufacturer’s instructions. When applicable, IC50 was calculated using the nonlinear regression method of the Prism 5 software (Graphpad Software Inc., San Diego, CA, USA). […] An MTT assay was conducted as described above to assess the fitness of the cells.

CNC(=O)c1ccccc1Sc1ccc2c(/C=C/c3ccccn3)n[nH]c2c1 [Axitinib, axitinib]
long-term proliferation (CPD) of C8-D1A cells (C8-D1A; continuous treatment, 5 µM axitinib, compared to etoposide 1 µM): milder effect | proliferation (CPD) of C8-D1A normal cells after removal of the drug (C8-D1A; transient treatment for 48 h, 5 µM): able to proliferate again | permeability of the barrier formed by BEC [1]: permeabilized the barrier | IC50 (DAOY): 2.3 ± 1.5 µM

— PMC8750527 (Cancers, 2021)
